# Measured values reported in PMC8466825, “Mass Spectrometric Quantification of the Antimicrobial Peptide Pep19-2.5 with Stable Isotope Labeling and Acidic Hydrolysis” (Pharmaceutics, 2021).
# Assay: Stability of aromatic amino acids during acidic hydrolysis (HPLC)
# Assay type: physicochemical
# Conditions: hydrochloric acid, 24 h at 120 °C, 1 mg/mL before hydrolysis, HPLC with UV 214 nm
# Experimental: For acidic hydrolysis 10 µL ^13C6(ring) phenylalanine (1 mg/mL stock) were added as internal standard to 200 µL water containing ^13C9,^15N1 phenylalanine (for calibration curve) or human serum (from voluntary donors) containing Pep19-2.5 with four ^13C9,^15N1 phenylalanine residues. After addition of 270 µL hydrochloric acid (10 M), the samples were hydrolyzed at 120 °C for 24 h. Subsequently, the solvent was evaporated in a vacuum evaporator (HETOVAC) at 40 °C for 4 h and the pellet was resuspended in water to achieve the applied concentration.
# HPLC analysis was performed using an Agilent 1100 system with an UV-detection at 214 nm. As stationary phase a Chromolith® Performance RP-18e 100–3 mm column (Merck KGaA, Darmstadt, Germany) was used. A 5 min linear gradient from 100% water (+0.05% trifluoroacetic acid (TFA)) to 100% acetonitrile (+0.05% TFA) was applied.
# For an accurate determination it is necessary to select an amino acid which is stable under the extreme conditions in the hydrolysis step (24 h, 120 °C). Moreover, the development of the method is facilitated if the amino acid is UV-active and more importantly in case of hydrophobic amino acids that are separated from the bulk of amino acids by RP-HPLC. Due to this, the three aromatic amino acids phenylalanine, tryptophan and tyrosine were hydrolyzed, and their stability analyzed by HPLC, as shown in Figure 4.
row,Compound,stability during the acidic hydrolysis process
1,"N[C@@H](Cc1c[nH]c2ccccc12)C(=O)O [Tryptophan, tryptophan]",forms several degradation products
2,N[C@@H](Cc1ccccc1)C(=O)O [phenylalanine],sufficiently stable
3,N[C@@H](Cc1ccc(O)cc1)C(=O)O [tyrosine],degraded to poorly soluble products
